Laboratory results as given in patent US20030083325A1, “Serotonin antagonists” (priority 1992, published 2003).
Structures can show the parent of a compound that is named as a salt.

Biological target: T1, 5HT2 receptor (Rattus norvegicus, UniProt P14842)
T1 construct: from tissue
Assay: spiroperidol binding test (5HT2 binding affinity)
Conditions: [3H] spiroperidol binding; concentration of compound at 50% inhibition
Description: As noted above, the compounds of Formula I are serotonin 5HT2 antagonists. […] In this test, 5HT2 receptors are exposed to both [^3H] spiroperidol, (a substance known to have a specific affinity for the receptor) and the test compound. The extent to which there is a decrease in binding of the [^3H] spiroperidol to the receptor is indicative of the affinity of the test compound for the 5HT2 receptor.
d) any reference to “5HT2 binding affinity” refers to the spiroperidol binding test as described by Peroutka et al., in Mol.Pharmacol., Vol. 16, pages 687-699 (1979).

T1 sequence (P14842 whole entry): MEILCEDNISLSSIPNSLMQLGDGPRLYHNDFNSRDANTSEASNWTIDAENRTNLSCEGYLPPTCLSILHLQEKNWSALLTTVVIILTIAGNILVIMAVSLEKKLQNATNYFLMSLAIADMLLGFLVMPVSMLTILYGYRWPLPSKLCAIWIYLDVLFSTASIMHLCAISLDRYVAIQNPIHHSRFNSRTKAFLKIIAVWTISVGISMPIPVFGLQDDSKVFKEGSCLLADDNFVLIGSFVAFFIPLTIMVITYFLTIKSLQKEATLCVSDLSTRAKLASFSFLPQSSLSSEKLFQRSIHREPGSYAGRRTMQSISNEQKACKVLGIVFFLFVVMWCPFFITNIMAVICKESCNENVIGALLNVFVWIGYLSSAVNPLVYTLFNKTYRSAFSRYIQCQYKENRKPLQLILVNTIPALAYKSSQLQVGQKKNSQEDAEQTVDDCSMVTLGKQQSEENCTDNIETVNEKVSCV

IC50 [µM] | Compound
0.162 | O=C(CN1CCC(CN2C(=O)[C@H]3CCCC[C@H]3C2=O)CC1)c1ccc(F)cc1 [Example 4, cis-2-[[1-[2-(4-fluorophenyl)-2-oxoethyl]-4-piperidinyl]methyl]hexahydro-1H-isoindole-1,3(2H)-dione monohydrochloride]
0.172 | O=C(CN1CCC(CN2C(=O)C3C4C=CC(C4)C3C2=O)CC1)c1ccc(F)cc1 (stereo not drawn) [Example 6, 2-[[1-[2-(4-fluorophenyl)-2-oxoethyl]-4-piperidinyl]methyl]-3a,4,7,7a-tetrahydro-4,7-methano-1H-isoindole-1,3(2H)-dione monohydrochloride]
0.307 | O=C(CN1CCC(CN2C(=O)C(c3ccccc3)=C(c3ccccc3)C2=O)CC1)c1ccc(F)cc1 [Example 7, 1-[[1-[2-(4-fluorophenyl)-2-oxoethyl]-4-piperidinyl]methyl]-3,4-diphenyl-1H-pyrrole-2,5-dione monohydrohydrochloride]
0.116 | Cc1ccc2c(c1)C(=O)N(CC1CCN(CC(=O)c3ccc(F)cc3)CC1)C2=O [Example 8, 2-[[1-[2-(4-fluorophenyl)-2-oxoethyl]-4-piperidinyl]methyl]-5-methyl-1H-isoindole-1,3(2H)-dione monohydrochloride]
0.096 | O=C(CN1CCC(CN2C(=O)c3cccc4cccc(c34)C2=O)CC1)c1ccc(F)cc1 [Example 9, 2-[[1-[2-(4-fluorophenyl)-2-oxoethyl]-4-piperidinyl]methyl]-1H-benz[de]isoquinoline-1,3(2H)-dione monohydrochloride]
0.033 | O=C(CN1CCC(CN2C(=O)c3cccc(F)c3C2=O)CC1)c1ccc(F)cc1 [Example 11, 2-[[1-[2-(4-fluorophenyl)-2-oxoethyl]-4-piperidinyl]methyl]-4-fluoro-1H-isoindole-1,3(2H)-dione monohydrochloride]
0.0149 | O=C(CN1CCC(Cn2c(=O)[nH]c3ccccc3c2=O)CC1)c1ccc(F)cc1 [Example 12, 2-[[1-[2-(4-fluorophenyl)-2-oxoethyl]-4-piperidinyl]methyl]-benzoyleneurea]

Further lines, the molecule ahead of its results:

Compound | IC50 [µM]
O=C(CN1CCC(CN2C(=O)[C@@H]3CCCC[C@H]3C2=O)CC1)c1ccc(F)cc1 (relative stereo) [Example 5, trans-2-[[1-[2-(4-fluorophenyl)-2-oxoethyl]-4-piperidinyl]methyl]hexahydro-1H-isoindole-1,3(2H)-dione monohydrochloride] | 0.076
O=C(CN1CCC(CN2C(=O)C3C4C=CC(CC4)C3C2=O)CC1)c1ccc(F)cc1 (stereo not drawn) [Example 1, 2-[[1-[2-(4-fluorophenyl)-2-oxoethyl]-4-piperidinyl]methyl]-3a,4,7,7a-tetrahydro-4,7-ethano-1H-isoindole-1,3(2H)-dione monohydrochloride] | 0.048
O=C(CN1CCC(CN2C(=O)c3ccccc3C2=O)CC1)c1ccc(F)cc1 [Example 2, 2-[[1-[2-(4-fluorophenyl)-2-oxoethyl]-4-piperidinyl]methyl]-1H-isoindole-1,3(2H)-dione] | 0.013
O=C(CN1CCC(CN2C(=O)C3CC=CCC3C2=O)CC1)c1ccc(F)cc1 (stereo not drawn) [Example 3, 2-[[1-[2-(4-fluorophenyl)-2-oxoethyl]-4-piperidinyl]methyl]-3a,4,7,7a-tetrahydro-1H-isoindole-1,3(2H)-dione monohydrohydrochloride] | 0.206
O=C(CN1CCC(CN2C(=O)c3ccccc3C2=O)CC1)c1ccccc1 [Example 10, 2-[[1-[2-phenyl-2-oxoethyl]-4-piperidinyl]methyl]-1H-isoindole-1,3(2H)-dione monohydrochloride] | 0.013

Tested on: thrombus formation
Assay: not given
Conditions: canine models; cited from earlier work

Compound | prevention of thrombus formation
O=C(c1ccc(F)cc1)C1CCN(CCn2c(=O)[nH]c3ccccc3c2=O)CC1 [Ketanserin] | extremely effective in preventing thrombus formation

Tested on: preference for alcohol and cocaine
Assay: not given
Conditions: rodent model of drug abuse; cited from earlier work

Compound | preference for alcohol and cocaine
Cc1nc2sccn2c(=O)c1CCN1CCC(=C(c2ccc(F)cc2)c2ccc(F)cc2)CC1 [ritanserin] | abolished the preference for both alcohol and cocaine

Tested on: coronary vessel constriction
Assay: not given
Conditions: patients with stable angina; cited from earlier work

Compound | coronary vessel constriction
O=C(c1ccc(F)cc1)C1CCN(CCn2c(=O)[nH]c3ccccc3c2=O)CC1 [Ketanserin] | blocked coronary vessel constriction
